From patent US20080248002A1, “ANTI-ANGIOGENIC CELLULAR AGENT FOR CANCER THERAPY” (priority 1999, published 2008) come the findings set out here.

One assay has as its system OCI-Ly8. As to the kind of experiment: BFA / conA treatment of CIK effector cells, lysis of OCI-Ly8. In kind it is cell-based. The conditions noted are these: day 21 CIK effector cells pre-incubated 2 hours with 1 μM BFA or 0.1 μM conA. On the procedure:
(§1) Brefeldin A (BFA) blocks the transport of FasL from intracellular stores to the cell surface (Lippincott-Schwartz et al. (1989) Cell 56:801; Lippincott-Schwartz et al. (1990) Cell 60:821; and Orci et al. (1991) Cell 64:1183). […] BFA was dissolved at 100 μg/ml in 70% ethanol and used fresh or stored up to 4 weeks at −20° C. Prior to cytotoxicity assays, the cells were rinsed three times with PBS and BFA-free fresh medium was added.
(§2) Concanamycin A (conA) depletes perforin contained in cytotoxic T-cell granules (Kataoka et al. (1996) J. Immunol. 156:3678; Ohminami et al. (1999) Blood 93:925). 15 ConA-treated effector cells were used in cytotoxicity assays to approximate the fractional contribution of the perforin/granzyme pathway to the total CIK cell mediated cytotoxicity.
(§3) Louis, Mo.). The cells were then incubated for 2 hours at 37° C. in a humidified atmosphere of 5% CO2.
(§4) BFA treatment of effector cells and the associated block of FasL transport reduced CIK lysis of the tumor target OCI-Ly8 by 33%, but had no effect on the lysis of EC targets (FIG. 4).

The subject of another assay is EC targets. As to the kind of experiment: BFA / conA treatment of CIK effector cells, lysis of EC targets. The conditions noted are these: day 21 CIK effector cells pre-incubated 2 hours with 1 μM BFA or 0.1 μM conA. In kind it is cell-based, human. On the procedure:
as §1, §2, §3, §4

The test system of another assay is EC. As to the kind of experiment: BFA pre-treatment of CIK targets, 51Cr release assay, EC. In kind it is cell-based. The conditions noted are these: targets pre-treated with 10 μM BFA, 20:1 E:T ratio. On the procedure:
(§5) CIK targets were treated with BFA and/or tunicamycin (TM). […] This resistance is sustained after BFA is removed from the media.

A further assay relates to OCI-Ly8 tumor targets. As to the kind of experiment: BFA / TM pre-treatment of CIK targets, 51Cr release assay, OCI-Ly8 tumor targets. In kind it is cell-based. The conditions noted are these: 20:1 E:T ratio. On the procedure:
as §5

Assay [1] relates to lymphoblastoid target AMK. As to the kind of experiment: BFA / TM pre-treatment of CIK targets, 51Cr release assay, lymphoblastoid target AMK. The settings on record: target pre-treatment (TM 22 hr), 20:1 E:T ratio. It counts as cell-based. On the procedure:
as §5

Consider `C[C@H]1CCC/C=C/[C@@H]2C[C@H](O)C[C@H]2[C@H](O)/C=C/C(=O)O1` [BFA, Brefeldin A], for which the “reduction of CIK lysis of OCI-Ly8” value in the assay with OCI-Ly8 was determined as 33%. The “effect on CIK lysis of EC targets” value in the assay on EC targets is given as “no effect”. Moreover, the “protection of EC from CIK mediated lysis” value in the assay with EC is recorded as “complete protection”. Also, in the assay on OCI-Ly8 tumor targets, the “effect of target pre-treatment on CIK killing of tumor targets” value was “did not reduce killing”. Moreover, the “effect of target pre-treatment on CIK killing of lymphoblastoid targets” value in assay [1] was “did not reduce killing”.
In the case of `C/C=C/[C@H]1O[C@@](O)([C@@H](C)[C@H](O)[C@H](C)[C@H]2OC(=O)/C(OC)=C/C(C)=C/[C@@H](C)[C@@H](O)[C@@H](CC)[C@@H](O)[C@H](C)C/C(C)=C/C=C/[C@@H]2OC)C[C@@H](O[C@H]2C[C@@H](O)[C@H](OC(N)=O)[C@@H](C)O2)[C@@H]1C` [Con A, Concanamycin A], in the assay with OCI-Ly8, the “reduction of CIK lysis of OCI-Ly8” value turned out to be 66%. Moreover, the “effect on CIK lysis of EC targets” value in the assay with EC targets was “completely abolished EC lysis”.
For tunicamycin [TM], the “effect of target pre-treatment on CIK killing of tumor targets” value with OCI-Ly8 tumor targets is “Neither TM or TM and BFA together altered CIK mediated lysis”. Besides, the “effect of target pre-treatment on CIK killing of lymphoblastoid targets” value in assay [1] is “rendered susceptible”.
